Source: patent US20230265151A1, “GIP/GLP1 CO-AGONIST COMPOUNDS” (priority 2020, published 2023)
Like-named read-outs stand apart in the source and are kept apart here. *1 amine or outer side, *2 acyl side, *3 side chain or, on linkers, in order; H or OH if unused. Where a SMILES comes first, the peptide text is derived from it. Side-chain parts run from the residue outwards. [ ]: non-standard residue; d: D form. The star is where a group is joined. αMePhe(2-F) = C[C@](N)(Cc1ccccc1F)C(=O)O; γGlu = O=C(O)[C@H](CCC(=O)[*:2])N[*:1]; αMeY = C[C@](N)(Cc1ccc(O)cc1)C(=O)O; αMeL = CC(C)C[C@](C)(N)C(=O)O; Lauroyl = CCCCCCCCCCCC(=O)*; AEEA = NCCOCCOCC(=O)O; Aib = CC(C)(N)C(=O)O

Columns and labels:
Format in all cases: cell-based
hGLP-1R = hGLP-1R (Homo sapiens, UniProt P43220); test: Functional cAMP formation (HTRF) in HEK-293 clonal cells expressing hGLP-1R, 0.1% bovine casein, without or with 1.0% human serum albumin; design: expressed in transfected cells; details: for Emax: percent of maximal response to GLP-1(7-36)NH2; for EC50: cAMP
hGLP-1R, sequence (P43220 24-463): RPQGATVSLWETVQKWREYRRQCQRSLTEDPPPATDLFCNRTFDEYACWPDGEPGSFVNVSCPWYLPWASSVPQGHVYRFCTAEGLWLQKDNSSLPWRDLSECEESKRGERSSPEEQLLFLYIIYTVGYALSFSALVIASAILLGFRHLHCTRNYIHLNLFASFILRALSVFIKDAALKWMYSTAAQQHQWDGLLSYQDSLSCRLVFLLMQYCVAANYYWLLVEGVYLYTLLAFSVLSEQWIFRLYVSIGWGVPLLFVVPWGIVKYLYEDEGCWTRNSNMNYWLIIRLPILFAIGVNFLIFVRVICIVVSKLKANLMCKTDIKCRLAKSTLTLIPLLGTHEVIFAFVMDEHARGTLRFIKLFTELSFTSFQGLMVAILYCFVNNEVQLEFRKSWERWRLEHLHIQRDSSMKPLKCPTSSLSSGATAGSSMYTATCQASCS
Procedure, shortened: (§1)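 Cells were stimulated with peptide for 30 min at 37° C, then intracellular cAMP was measured by competitive HTRF (665/620 nm ratio) and converted to nM using a cAMP standard curve. Relative EC50 and Emax came from four-parameter logistic fits of percent maximal response against peptide concentration.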

hGCGR = target: T1, hGCGR (Homo sapiens, UniProt P47871); test: Functional cAMP formation (HTRF) in HEK-293 clonal cells expressing hGCGR, 0.1% bovine casein, without or with 1.0% human serum albumin; details: cAMP, 37° C.
T1 construct: expressed in transfected cells
T1 sequence (P47871 26-477): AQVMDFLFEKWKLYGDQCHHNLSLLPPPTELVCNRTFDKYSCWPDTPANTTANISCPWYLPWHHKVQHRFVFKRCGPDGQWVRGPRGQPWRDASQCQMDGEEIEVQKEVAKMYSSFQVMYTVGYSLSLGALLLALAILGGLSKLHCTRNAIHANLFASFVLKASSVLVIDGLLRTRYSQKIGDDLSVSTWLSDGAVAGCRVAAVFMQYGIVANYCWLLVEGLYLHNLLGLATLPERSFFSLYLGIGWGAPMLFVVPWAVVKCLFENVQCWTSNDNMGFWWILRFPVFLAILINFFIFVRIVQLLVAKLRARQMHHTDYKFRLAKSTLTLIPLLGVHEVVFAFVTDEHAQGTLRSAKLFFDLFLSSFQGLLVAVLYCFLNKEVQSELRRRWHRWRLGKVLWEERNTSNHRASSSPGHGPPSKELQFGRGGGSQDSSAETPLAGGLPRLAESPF
Procedure, shortened: as §1

hGIPR = target: T2, hGIPR (Homo sapiens, UniProt P48546); test: Functional cAMP formation (HTRF) in HEK-293 clonal cells expressing hGIPR, 0.1% bovine casein, without or with 1.0% human serum albumin; details: 37° C.; for Emax: HEK293, cAMP, percent of maximal response to GIP(1-42)NH2, read-out: hGIPR Emax, % ± SEM; for EC50: cAMP, 0.1% bovine casein (no human serum albumin), geometric mean
T2 construct: expressed in transfected cells
T2 sequence (P48546 22-466): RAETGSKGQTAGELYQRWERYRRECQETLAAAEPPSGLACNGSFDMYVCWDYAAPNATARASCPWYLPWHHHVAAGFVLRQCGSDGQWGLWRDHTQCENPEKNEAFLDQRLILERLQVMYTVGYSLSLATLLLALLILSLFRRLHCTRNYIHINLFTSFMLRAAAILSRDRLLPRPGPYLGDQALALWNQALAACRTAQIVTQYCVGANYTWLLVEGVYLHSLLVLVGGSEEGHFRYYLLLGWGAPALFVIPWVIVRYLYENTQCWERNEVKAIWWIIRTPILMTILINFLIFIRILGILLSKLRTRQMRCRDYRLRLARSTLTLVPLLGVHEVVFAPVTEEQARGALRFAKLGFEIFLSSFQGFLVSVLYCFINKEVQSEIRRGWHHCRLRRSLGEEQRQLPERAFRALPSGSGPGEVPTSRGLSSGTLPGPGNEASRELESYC
Procedure, shortened: as §1

[1] = HEK293, cAMP, 37° C., 0.1% bovine casein, arithmetic mean, read-out: hGLP-1R Emax, % ± SEM
[2] = 37° C., 0.1% bovine casein (no human serum albumin), geometric mean, read-out: hGLP-1R EC50, nM (SEM, n)
[3] = 0.1% bovine casein (no human serum albumin), geometric mean, read-out: hGCGR EC50, nM (SEM, n)
[4] = 0.1% bovine casein and 1.0% human serum albumin, geometric mean (SEM, n), read-out: hGCGR EC50, nM (SEM, n)
[5] = 0.1% bovine casein and 1.0% human serum albumin
[6] = read-out: hGIPR EC50, nM (SEM, n)
[7] = HEK293, cAMP, 37° C., 0.1% bovine casein and 1.0% human serum albumin, read-out: hGLP-1R Emax, % ± SEM
[8] = 37° C., 0.1% bovine casein and 1.0% human serum albumin, geometric mean (SEM, n), read-out: hGLP-1R EC50, nM (SEM, n)

| Structure (SMILES) | Emax (hGLP-1R; [1]) [%] | EC50 (hGLP-1R; [2]) [nM] | EC50 (hGCGR; [3]) [nM] | EC50 (hGCGR; [4]) [nM] | Emax (hGIPR; [5]) [%] | EC50 (hGIPR; [6]) [nM] | Emax (hGLP-1R; [7]) [%] | EC50 (hGLP-1R; [8]) [nM] | Emax (hGIPR; 0.1% bovine casein, arithmetic mean) [%] | Emax (hGLP-1R; HEK293, read-out: hGLP-1R Emax, % ± SEM, cAMP, 37° C., 0.1% bovine casein, arithmetic mean) [%] | EC50 (hGLP-1R; hGLP-1R EC50, nM (SEM, n), 37° C., 0.1% bovine casein (no human serum albumin), geometric mean) [nM] | EC50 (hGCGR; hGCGR EC50, nM (SEM, n), 0.1% bovine casein (no human serum albumin), geometric mean) [nM] | EC50 (hGCGR; hGCGR EC50, nM (SEM, n), 0.1% bovine casein and 1.0% human serum albumin, geometric mean (SEM, n)) [nM] | EC50 (hGIPR; hGIPR EC50, nM (SEM, n)) [nM] |
| --- | --- | --- | --- | --- | --- | --- | --- | --- | --- | --- | --- | --- | --- | --- |
| CC[C@H](C)[C@H](NC(=O)[C@H](CC(C)C)NC(=O)[C@](C)(Cc1ccc(O)cc1)NC(=O)[C@H](CCCCNC(=O)COCCOCCNC(=O)COCCOCCNC(=O)CC[C@H](NC(=O)CCCCCCCCCCCCCCC(=O)O)C(=O)O)NC(=O)[C@@H](NC(=O)[C@H](Cc1ccccc1)NC(=O)[C@H](CCCN)NC(=O)C(C)(C)NC(=O)[C@H](CCC(N)=O)NC(=O)[C@H](C)NC(=O)[C@H](CCC(N)=O)NC(=O)[C@H](CCCN)NC(=O)[C@H](CC(=O)O)NC(=O)[C@H](CC(C)C)NC(=O)[C@](C)(CC(C)C)NC(=O)[C@@H](NC(=O)C(C)(C)NC(=O)[C@H](Cc1ccncc1)NC(=O)[C@H](CC(=O)O)NC(=O)[C@H](CO)NC(=O)[C@@H](NC(=O)[C@](C)(Cc1ccccc1F)NC(=O)[C@@H](NC(=O)CNC(=O)[C@H](CCC(=O)O)NC(=O)C(C)(C)NC(=O)[C@@H](N)Cc1ccc(O)cc1)[C@@H](C)O)[C@@H](C)O)[C@@H](C)CC)[C@@H](C)CC)C(=O)N[C@@H](CCCCNC(=O)COCCOCCNC(=O)COCCOCCNC(=O)CC[C@H](NC(=O)CCCCCCCCCCCCCCC(=O)O)C(=O)O)C(=O)NCC(=O)NCC(=O)N1CCC[C@H]1C(=O)N[C@@H](CO)C(=O)N[C@@H](CO)C(=O)NCC(=O)N[C@@H](C)C(=O)N1CCC[C@H]1C(=O)N1CCC[C@H]1C(=O)N1CCC[C@H]1C(=O)N[C@@H](CO)C(N)=O [Example 443] | 114 | 0.294 | > 9950 | > 9950 | 91.1 | 0.0178 | – | – | – | – | – | – | – | – |
| CC[C@H](C)[C@H](NC(=O)[C@H](CC(C)C)NC(=O)[C@](C)(Cc1ccc(O)cc1)NC(=O)[C@H](CCCCNC(=O)COCCOCCNC(=O)COCCOCCNC(=O)CC[C@H](NC(=O)CCCCCCCCCCCCC(=O)O)C(=O)O)NC(=O)[C@@H](NC(=O)[C@H](Cc1ccccc1)NC(=O)[C@H](Cc1ccncc1)NC(=O)C(C)(C)NC(=O)[C@H](CCC(N)=O)NC(=O)[C@H](C)NC(=O)[C@H](CCC(N)=O)NC(=O)[C@H](CCCN)NC(=O)[C@H](CC(=O)O)NC(=O)[C@H](CC(C)C)NC(=O)[C@](C)(CC(C)C)NC(=O)[C@@H](NC(=O)C(C)(C)NC(=O)[C@H](Cc1ccncc1)NC(=O)[C@H](CC(=O)O)NC(=O)[C@H](CO)NC(=O)[C@@H](NC(=O)[C@](C)(Cc1ccccc1F)NC(=O)[C@@H](NC(=O)CNC(=O)[C@H](CCC(=O)O)NC(=O)C(C)(C)NC(=O)[C@@H](N)Cc1ccc(O)cc1)[C@@H](C)O)[C@@H](C)O)[C@@H](C)CC)[C@@H](C)CC)C(=O)N[C@@H](CCCCNC(=O)COCCOCCNC(=O)COCCOCCNC(=O)CC[C@H](NC(=O)CCCCCCCCCCCCC(=O)O)C(=O)O)C(=O)NCC(=O)NCC(=O)N1CCC[C@H]1C(=O)N[C@@H](CO)C(=O)N[C@@H](CO)C(=O)NCC(=O)N[C@@H](C)C(=O)N1CCC[C@H]1C(=O)N1CCC[C@H]1C(=O)N1CCC[C@H]1C(=O)N[C@@H](CO)C(N)=O [Example 444] | – | 0.289 | > 9950 | > 9950 | 83.6 | 0.0157 | 98.8 | 7.51 | 93.6 | – | – | – | – | – |
| CCCCCCCCCCCC(=O)N[C@@H](CCC(=O)NCCOCCOCC(=O)NCCOCCOCC(=O)NCCCC[C@H](NC(=O)CNC(=O)[C@H](CC(=O)O)NC(=O)[C@H](CC(C)C)NC(=O)[C@](C)(CC(C)C)NC(=O)[C@@H](NC(=O)C(C)(C)NC(=O)[C@H](CCCCNC(=O)COCCOCCNC(=O)COCCOCCNC(=O)CC[C@H](NC(=O)CCCCCCCCCCC)C(=O)O)NC(=O)[C@H](CC(=O)O)NC(=O)[C@H](CO)NC(=O)[C@@H](NC(=O)[C@](C)(Cc1ccccc1F)NC(=O)[C@@H](NC(=O)CNC(=O)[C@H](CCC(=O)O)NC(=O)C(C)(C)NC(=O)[C@@H](N)Cc1ccc(O)cc1)[C@@H](C)O)[C@@H](C)O)[C@@H](C)CC)C(=O)N[C@@H](C)C(=O)N[C@@H](CCC(N)=O)C(=O)NC(C)(C)C(=O)N[C@@H](CCC(=O)O)C(=O)N[C@@H](Cc1ccccc1)C(=O)N[C@H](C(=O)N[C@H](CCC(=O)O)C(=O)N[C@@](C)(Cc1ccc(O)cc1)C(=O)N[C@@H](CC(C)C)C(=O)N[C@H](C(=O)N[C@@H](CCC(=O)O)C(=O)NCC(=O)NCC(=O)N1CCC[C@H]1C(=O)N[C@@H](CO)C(=O)N[C@@H](CO)C(=O)NCC(=O)N[C@@H](C)C(=O)N1CCC[C@H]1C(=O)N1CCC[C@H]1C(=O)N1CCC[C@H]1C(=O)N[C@@H](CO)C(N)=O)[C@@H](C)CC)[C@@H](C)CC)C(=O)O [Example 445] (H-Y[Aib]EGT[αMePhe(2-F)]TSDK([AEEA-AEEA-γGlu-Lauroyl])[Aib]I[αMeL]LDGK([AEEA-AEEA-γGlu-Lauroyl])AQ[Aib]EFI[dE][αMeY]LIEGGPSSGAPPPS-NH2; N-terminus assumed) | – | 0.0781 | > 9950 | > 9950 | 91.4 | 0.00728 | 100 | 13.1 | – | – | – | – | – | – |
| CC[C@H](C)[C@H](NC(=O)[C@H](CC(C)C)NC(=O)[C@](C)(Cc1ccc(O)cc1)NC(=O)[C@H](CCCCNC(=O)COCCOCCNC(=O)COCCOCCNC(=O)CC[C@H](NC(=O)CCCCCCCCCOc1ccc(C(=O)O)cc1)C(=O)O)NC(=O)[C@@H](NC(=O)[C@H](Cc1ccccc1)NC(=O)[C@H](CCCN)NC(=O)C(C)(C)NC(=O)[C@H](CCC(N)=O)NC(=O)[C@H](C)NC(=O)[C@H](CCC(N)=O)NC(=O)[C@H](CCCN)NC(=O)[C@H](CC(=O)O)NC(=O)[C@H](CC(C)C)NC(=O)[C@](C)(CC(C)C)NC(=O)[C@@H](NC(=O)C(C)(C)NC(=O)[C@@H](NC(=O)[C@H](CC(=O)O)NC(=O)[C@H](CO)NC(=O)[C@@H](NC(=O)[C@](C)(Cc1ccccc1F)NC(=O)[C@@H](NC(=O)CNC(=O)[C@H](CCC(=O)O)NC(=O)C(C)(C)NC(=O)[C@@H](N)Cc1ccc(O)cc1)[C@@H](C)O)[C@@H](C)O)C(C)C)[C@@H](C)CC)[C@@H](C)CC)C(=O)N[C@@H](CCCCNC(=O)COCCOCCNC(=O)COCCOCCNC(=O)CC[C@H](NC(=O)CCCCCCCCCOc1ccc(C(=O)O)cc1)C(=O)O)C(=O)NCC(=O)NCC(=O)N1CCC[C@H]1C(=O)N[C@@H](CO)C(=O)N[C@@H](CO)C(=O)NCC(=O)N[C@@H](C)C(=O)N1CCC[C@H]1C(=O)N1CCC[C@H]1C(=O)N1CCC[C@H]1C(=O)N[C@@H](CO)C(N)=O [Example 447] | – | – | – | – | – | – | – | – | – | 105 | 0.219 | > 9950 | > 9950 | 0.017 |
| CC[C@H](C)[C@H](NC(=O)[C@H](CC(C)C)NC(=O)[C@](C)(Cc1ccc(O)cc1)NC(=O)[C@H](CCCCNC(=O)COCCOCCNC(=O)CCCCCCCNC(=O)CC[C@H](NC(=O)CCCCCCCCCCCCC(=O)O)C(=O)O)NC(=O)[C@@H](NC(=O)[C@H](Cc1ccccc1)NC(=O)[C@H](CCCN)NC(=O)C(C)(C)NC(=O)[C@H](CCC(N)=O)NC(=O)[C@H](C)NC(=O)[C@H](CCC(N)=O)NC(=O)[C@H](CCCN)NC(=O)[C@H](CC(=O)O)NC(=O)[C@H](CC(C)C)NC(=O)[C@](C)(CC(C)C)NC(=O)[C@@H](NC(=O)C(C)(C)NC(=O)[C@H](Cc1ccncc1)NC(=O)[C@H](CC(=O)O)NC(=O)[C@H](CO)NC(=O)[C@@H](NC(=O)[C@](C)(Cc1ccccc1F)NC(=O)[C@@H](NC(=O)CNC(=O)[C@H](CCC(=O)O)NC(=O)C(C)(C)NC(=O)[C@@H](N)Cc1ccc(O)cc1)[C@@H](C)O)[C@@H](C)O)[C@@H](C)CC)[C@@H](C)CC)C(=O)N[C@@H](CCCCNC(=O)COCCOCCNC(=O)CCCCCCCNC(=O)CC[C@H](NC(=O)CCCCCCCCCCCCC(=O)O)C(=O)O)C(=O)NCC(=O)NCC(=O)N1CCC[C@H]1C(=O)N[C@@H](CO)C(=O)N[C@@H](CO)C(=O)NCC(=O)N[C@@H](C)C(=O)N1CCC[C@H]1C(=O)N1CCC[C@H]1C(=O)N1CCC[C@H]1C(=O)N[C@@H](CO)C(N)=O [Example 450] | 120 | 0.201 | > 9950 | > 9950 | 91.4 | 0.0138 | – | 32.3 | – | – | – | – | – | – |
